{
  "source": "PubChem BioAssay AID1963842",
  "about": "(Molecular Pharmacology Branch, DTP, NCI, 2024)",
  "tested_on": "677734-321-R-J1-PDC complex spheroid viability",
  "experiment": "Anticancer human tumor 677734-321-R-J1-PDC patient-derived soft tissue sarcoma cell line growth inhibition [POLQ]",
  "conditions": "for pIC50: curve of first compound; for viability, T/C: stronger effect = lower value",
  "procedure,_shortened": "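Complex spheroid viability model combining PDC tumour cells with endothelial (HUVEC) and MSC stromal cells. Novobiocin, ART-558 or RP6685 were tested singly and in combination with standard and investigational anticancer drugs. Each was titrated in half-log steps from near clinical Cmax, or from 10 microM where Cmax was unknown.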",
  "note": "pIC50: −log10 of the molar value.",
  "data": [
    {"compound": "COc1cccc2c1C(=O)c1c(O)c3c(c(O)c1C2=O)CC(O)(C(=O)CO)CC3OC1CC(N)C(O)C(C)O1", "note": "(configuration not stated) + COC1C(OC(N)=O)C(O)C(Oc2ccc3c(O)c(NC(=O)c4ccc(O)c(CC=C(C)C)c4)c(=O)oc3c2C)OC1(C)C;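 further: spheroids exposed to compounds for one week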;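 on viability, T/C: 100% = vehicle DMSO treated spheroids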", "values": [
      {"measurement": "pIC50", "setting": "second compound 0.0316 µM", "result": 6.98},
      {"measurement": "pIC50", "setting": "second compound 0.1 µM", "result": 6.86},
      {"measurement": "pIC50", "setting": "second compound 0.316 µM", "result": 6.88},
      {"measurement": "pIC50", "setting": "second compound 1 µM", "result": 6.83},
      {"measurement": "pIC50", "setting": "second compound 3.16 µM", "result": 6.89},
      {"measurement": "pIC50", "setting": "second compound 10 µM", "result": 6.86},
      {"measurement": "viability, T/C", "setting": "second compound 0.0316 µM, first compound 0.0316 µM", "result": 84.4, "unit": "%"},
      {"measurement": "viability, T/C", "setting": "second compound 0.0316 µM, first compound 0.1 µM", "result": 51.5, "unit": "%"},
      {"measurement": "viability, T/C", "setting": "second compound 0.0316 µM, first compound 0.316 µM", "result": 7.79, "unit": "%"},
      {"measurement": "viability, T/C", "setting": "second compound 0.0316 µM, first compound 1 µM", "result": 3.03, "unit": "%"},
      {"measurement": "viability, T/C", "setting": "second compound 0.0316 µM, first compound 3.16 µM", "result": 2.77, "unit": "%"},
      {"measurement": "viability, T/C", "setting": "second compound 0.0316 µM, first compound 10 µM", "result": 2.45, "unit": "%"},
      {"measurement": "viability, T/C", "setting": "second compound 0.1 µM, first compound 0.0316 µM", "result": 77.6, "unit": "%"},
      {"measurement": "viability, T/C", "setting": "second compound 0.1 µM, first compound 0.1 µM", "result": 66.7, "unit": "%"},
      {"measurement": "viability, T/C", "setting": "second compound 0.1 µM, first compound 0.316 µM", "result": 7.11, "unit": "%"},
      {"measurement": "viability, T/C", "setting": "second compound 0.1 µM, first compound 1 µM", "result": 0.57, "unit": "%"},
      {"measurement": "viability, T/C", "setting": "second compound 0.1 µM, first compound 3.16 µM", "result": 1.78, "unit": "%"},
      {"measurement": "viability, T/C", "setting": "second compound 0.1 µM, first compound 10 µM", "result": 3.77, "unit": "%"},
      {"measurement": "viability, T/C", "setting": "second compound 0.316 µM, first compound 0.0316 µM", "result": 60.4, "unit": "%"},
      {"measurement": "viability, T/C", "setting": "second compound 0.316 µM, first compound 0.1 µM", "result": 67, "unit": "%"},
      {"measurement": "viability, T/C", "setting": "second compound 0.316 µM, first compound 0.316 µM", "result": 7.66, "unit": "%"},
      {"measurement": "viability, T/C", "setting": "second compound 0.316 µM, first compound 1 µM", "result": 0.61, "unit": "%"},
      {"measurement": "viability, T/C", "setting": "second compound 0.316 µM, first compound 3.16 µM", "result": 2.67, "unit": "%"},
      {"measurement": "viability, T/C", "setting": "second compound 0.316 µM, first compound 10 µM", "result": 3.36, "unit": "%"},
      {"measurement": "viability, T/C", "setting": "second compound 1 µM, first compound 0.0316 µM", "result": 83.5, "unit": "%"},
      {"measurement": "viability, T/C", "setting": "second compound 1 µM, first compound 0.1 µM", "result": 70.1, "unit": "%"},
      {"measurement": "viability, T/C", "setting": "second compound 1 µM, first compound 0.316 µM", "result": 11.2, "unit": "%"},
      {"measurement": "viability, T/C", "setting": "second compound 1 µM, first compound 1 µM", "result": 0.59, "unit": "%"},
      {"measurement": "viability, T/C", "setting": "second compound 1 µM, first compound 3.16 µM", "result": 1.98, "unit": "%"},
      {"measurement": "viability, T/C", "setting": "second compound 1 µM, first compound 10 µM", "result": 2.55, "unit": "%"},
      {"measurement": "viability, T/C", "setting": "second compound 3.16 µM, first compound 0.0316 µM", "result": 74.5, "unit": "%"},
      {"measurement": "viability, T/C", "setting": "second compound 3.16 µM, first compound 0.1 µM", "result": 62.4, "unit": "%"},
      {"measurement": "viability, T/C", "setting": "second compound 3.16 µM, first compound 0.316 µM", "result": 8.7, "unit": "%"},
      {"measurement": "viability, T/C", "setting": "second compound 3.16 µM, first compound 1 µM", "result": 0.64, "unit": "%"},
      {"measurement": "viability, T/C", "setting": "second compound 3.16 µM, first compound 3.16 µM", "result": 2.76, "unit": "%"},
      {"measurement": "viability, T/C", "setting": "second compound 3.16 µM, first compound 10 µM", "result": 2.4, "unit": "%"},
      {"measurement": "viability, T/C", "setting": "second compound 10 µM, first compound 0.0316 µM", "result": 68.8, "unit": "%"},
      {"measurement": "viability, T/C", "setting": "second compound 10 µM, first compound 0.1 µM", "result": 67.1, "unit": "%"},
      {"measurement": "viability, T/C", "setting": "second compound 10 µM, first compound 0.316 µM", "result": 7.17, "unit": "%"},
      {"measurement": "viability, T/C", "setting": "second compound 10 µM, first compound 1 µM", "result": 0.88, "unit": "%"},
      {"measurement": "viability, T/C", "setting": "second compound 10 µM, first compound 3.16 µM", "result": 3.28, "unit": "%"},
      {"measurement": "viability, T/C", "setting": "second compound 10 µM, first compound 10 µM", "result": 1.86, "unit": "%"}
    ]}
  ]
}
